Measurements taken from publication PMC10586451, “Design, Synthesis, Pharmacological Activities, Structure–Activity Relationship, and In Silico Studies of Novel 5-Substituted-2-(morpholinoimino)-thiazolidin-4-ones” (ACS Omega, 2023).
Where “and” joins values, the source holds several entries; their conditions need not be identical. Equal values may be shown once.

Columns and labels:
[1] = β-carotene-linoleic acid assay (antioxidant); conditions: mean ± SEM of three parallel measurements
Experimental: (§1) DMSO solutions of four different concentrations (12.5, 25, 50, and 100 μM) of the synthesized compound 1–26 were prepared. DMSO was used as a control, while BHA and α-TOC were used as antioxidant standards.

[2] = DPPH radical scavenging assay; conditions: mean ± SEM of three parallel measurements
Experimental: as §1

[3] = ABTS cation radical scavenging assay; conditions: mean ± SEM of three parallel measurements
Experimental: as §1

[4] = CUPRAC assay (Cu(II) reducing power); conditions: concentration at 0.500 absorbance; mean ± SEM
Experimental: as §1

[5] = biological target: T1, Acetylcholinesterase (AChE) (Electrophorus electricus, UniProt O42275); assay: biochemical; conditions: for SI for AChE: Selectivity index: IC50 for BChE/IC50 for AChE; for IC50: mean ± SEM of three parallel measurements
T1 construct: Acetylcholinesterase (AChE) from electric eel; from tissue; host or cells: electric eel
T1 sequence (O42275 24-633): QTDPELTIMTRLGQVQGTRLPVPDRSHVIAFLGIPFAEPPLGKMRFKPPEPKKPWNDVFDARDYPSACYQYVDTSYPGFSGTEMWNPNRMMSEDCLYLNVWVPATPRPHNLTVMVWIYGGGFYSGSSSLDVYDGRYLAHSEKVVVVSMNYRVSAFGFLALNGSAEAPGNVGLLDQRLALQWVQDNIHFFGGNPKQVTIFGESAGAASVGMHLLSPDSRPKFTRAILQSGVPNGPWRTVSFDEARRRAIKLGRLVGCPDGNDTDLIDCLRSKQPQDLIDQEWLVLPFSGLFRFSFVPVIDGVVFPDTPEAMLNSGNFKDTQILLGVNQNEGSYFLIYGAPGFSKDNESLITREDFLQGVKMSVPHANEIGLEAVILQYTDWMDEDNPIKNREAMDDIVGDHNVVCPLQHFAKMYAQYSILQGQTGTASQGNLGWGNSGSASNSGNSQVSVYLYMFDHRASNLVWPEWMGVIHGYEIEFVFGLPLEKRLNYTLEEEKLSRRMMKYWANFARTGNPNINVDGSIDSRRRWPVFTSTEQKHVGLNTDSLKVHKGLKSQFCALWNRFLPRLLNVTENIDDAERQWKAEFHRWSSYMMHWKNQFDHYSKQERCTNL
Experimental: (§2) Anticholinesterase activity of all was performed according to the Ellman’s method using a 96-well microplate reader. Acetylcholinesterase (AChE) from electric eel and butyrylcholinesterase (BChE) from horse serum were used. Acetylthiocholine iodide and butyrylthiocholine chloride were utilized as substrates. DTNB (5,50-dithiobis(2-nitrobenzoic) acid was used as a coloring agent to measure the anticholinesterase activity.[43] Measurements were obtained in triplicate.

[6] = biological target: T2, butyrylcholinesterase (BChE) (Equus caballus, UniProt P81908); assay: biochemical; conditions: for SI for BChE: Selectivity index: IC50 for AChE/IC50 for BChE; for IC50: mean ± SEM of three parallel measurements
T2 construct: butyrylcholinesterase (BChE) from horse serum; from tissue; host or cells: horse serum
T2 sequence (P81908 whole entry): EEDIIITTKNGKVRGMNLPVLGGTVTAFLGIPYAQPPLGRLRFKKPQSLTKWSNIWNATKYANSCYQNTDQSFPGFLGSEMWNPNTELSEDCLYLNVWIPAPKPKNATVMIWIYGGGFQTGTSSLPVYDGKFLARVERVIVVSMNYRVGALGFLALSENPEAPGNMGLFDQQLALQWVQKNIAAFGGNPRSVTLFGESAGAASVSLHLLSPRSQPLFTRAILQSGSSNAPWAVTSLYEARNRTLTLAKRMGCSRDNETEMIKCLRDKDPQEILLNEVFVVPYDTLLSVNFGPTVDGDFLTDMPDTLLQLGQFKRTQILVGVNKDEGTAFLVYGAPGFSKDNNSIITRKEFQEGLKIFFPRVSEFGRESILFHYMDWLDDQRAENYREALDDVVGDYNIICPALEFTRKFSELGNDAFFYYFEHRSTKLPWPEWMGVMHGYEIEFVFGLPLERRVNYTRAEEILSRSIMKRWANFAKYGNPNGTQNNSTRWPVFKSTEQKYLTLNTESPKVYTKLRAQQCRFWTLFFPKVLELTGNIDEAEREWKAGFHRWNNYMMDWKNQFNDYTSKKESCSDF
Experimental: as §2

tyrosinase = assay type: biochemical; conditions: mean ± SEM of three parallel measurements
urease = urease (Canavalia ensiformis, UniProt P07374); assay: biochemical; conditions: urease activity IC50, mean ± SEM of three parallel measurements
Sequence of urease (P07374 whole entry, looked up): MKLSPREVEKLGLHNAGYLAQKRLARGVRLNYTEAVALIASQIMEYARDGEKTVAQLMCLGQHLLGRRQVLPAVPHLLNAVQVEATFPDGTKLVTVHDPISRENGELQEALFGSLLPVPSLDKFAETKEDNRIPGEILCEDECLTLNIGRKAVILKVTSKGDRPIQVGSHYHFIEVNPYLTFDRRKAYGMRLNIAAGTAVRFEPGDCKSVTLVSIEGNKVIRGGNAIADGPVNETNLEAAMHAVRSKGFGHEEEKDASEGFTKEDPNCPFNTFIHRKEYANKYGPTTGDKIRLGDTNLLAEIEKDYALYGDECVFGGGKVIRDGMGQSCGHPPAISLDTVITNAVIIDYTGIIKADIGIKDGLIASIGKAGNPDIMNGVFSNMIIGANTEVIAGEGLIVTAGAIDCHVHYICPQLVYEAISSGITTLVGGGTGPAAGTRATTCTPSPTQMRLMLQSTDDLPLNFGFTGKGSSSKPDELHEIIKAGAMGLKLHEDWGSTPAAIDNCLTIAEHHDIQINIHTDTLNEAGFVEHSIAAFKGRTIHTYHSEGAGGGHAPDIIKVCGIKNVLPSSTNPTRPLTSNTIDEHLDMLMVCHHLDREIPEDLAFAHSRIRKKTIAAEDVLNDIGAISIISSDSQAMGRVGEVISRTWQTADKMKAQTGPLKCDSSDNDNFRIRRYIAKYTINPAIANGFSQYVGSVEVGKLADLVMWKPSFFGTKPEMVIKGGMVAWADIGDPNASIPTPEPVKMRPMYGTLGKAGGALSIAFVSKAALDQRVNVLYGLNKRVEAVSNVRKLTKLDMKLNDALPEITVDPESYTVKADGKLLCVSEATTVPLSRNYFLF

SMILES | IC50 [1] | IC50 [2] | IC50 [3] | CUPRAC assay A0.5 [4] | SI for AChE [5] | IC50 [5] | SI for BChE [6] | IC50 [6] | IC50 (tyrosinase) | IC50 (urease)
O=C1C(=Cc2ccc3ccccc3n2)SC(=NN2CCOCC2)N1c1ccccc1 [Compound 26, 2-(Morpholinoimino)-3-phenyl-5-(quinolin-2-ylmethylene)thiazolidin-4-one] | 22.4 ± 0.3 µM | 29.7 ± 0.9 µM | 26.5 ± 0.63 µM | 25.91 ± 0.02 µM | 1.30 | 19.8 ± 0.37 µM | 0.77 | 25.7 ± 0.53 µM | 8760 ± 900 µM | 21.5 ± 0.44 µM
O=C1C(=Cc2ccc[nH]2)SC(=NN2CCOCC2)N1c1ccccc1 [Compound 18, 5-((1H-Pyrrol-2-yl)methylene)-2-(morpholinoimino)-3-phenylthiazolidin-4-one] | 33.62 ± 0.04 µM | 35.07 ± 0.03 µM | 31.04 ± 0.17 µM | 26.60 ± 0.02 µM | 1.54 | 21.4 ± 0.92 µM | 0.65 | 32.9 ± 0.75 µM | 16000 ± 410 µM | 20.2 ± 0.77 µM
O=C1C(=Cc2ccc(Br)cc2)SC(=NN2CCOCC2)N1c1ccccc1 [Compound 4, 5-(4-Bromobenzylidene)-2-(morpholinoimino)-3-phenylthiazolidine-4-one] | 34.7 ± 0.15 µM | 40.2 ± 0.77 µM | 23.7 ± 0.66 µM | 21.18 ± 0.00 µM | 1.43 | 27.7 ± 0.51 µM | 0.70 | 39.6 ± 0.74 µM | 28400 ± 900 µM | 56.11 ± 0.22 µM
Cc1ccsc1C=C1SC(=NN2CCOCC2)N(c2ccccc2)C1=O [Compound 17, 5-((3-Methylthiophene-2-yl)methylene)-2-(morpholinoimino)-3-phenylthiazolidin-4-one] | 36 ± 0.58 µM | 36 ± 1 µM | 33.2 ± 0.65 µM | 27.65 ± 0.01 µM | 1.43 | 34.8 ± 0.53 µM | 0.70 | 49.8 ± 1.01 µM | 3220 ± 700 µM | 40.22 ± 0.12 µM
COc1ccc(C=C2SC(=NN3CCOCC3)N(c3ccccc3)C2=O)cc1 [Compound 6, 5-(4-(Methoxy)benzylidene)-2-(morpholinoimino)-3-phenylthiazolidin-4-one] | 37.07 ± 0.22 µM | 43.46 ± 0.14 µM | 30.6 ± 0.05 µM | 32.68 ± 0.01 µM | 1.27 | 29 ± 0.64 µM | 0.79 | 36.81 ± 0.19 µM | 27990 ± 170 µM | 50.78 ± 0.08 µM
O=C1C(=Cc2ccsc2)SC(=NN2CCOCC2)N1c1ccccc1 [Compound 16, 2-(Morpholinoimino)-3-phenyl-5-(thiophen-3-ylmethylene) thiazolidine-4-one] | 31.4 ± 1.01 µM | 36.21 ± 0.17 µM | 35.7 ± 1.61 µM | 16.94 ± 0.01 µM | 1.46 | 29 ± 1.03 µM | 0.69 | 42.5 ± 0.18 µM | 24080 ± 150 µM | 42 ± 0.81 µM
O=C1C(=Cc2c[nH]c3ccccc23)SC(=NN2CCOCC2)N1c1ccccc1 [Compound 24, 5-((1H-Indol-3-yl)methylene)-2-(morpholinoimino)-3-phenylthiazolidin-4-one] | 27.73 ± 0.23 µM | 33.24 ± 0.21 µM | 30 ± 1.01 µM | 30.04 ± 0.02 µM | 1.32 | 19.5 ± 0.29 µM | 0.76 | 25.7 ± 0.69 µM | 7210 ± 270 µM | 23.6 µM and 22.5 µM
